13 compounds from patent publication US10813930B2, “Substituted imidazopyridazines and benzimidazoles as inhibitors of FGFR3” (Incyte Corporation, priority 2010, dated 2020) can be followed below.

SMILES strings stand for the structures.

This experiment deals with FGFR3 enzyme (Millipore) (Homo sapiens (Human), UniProt P22607). The experiment in a line: FGFR3 Enzymatic Assay (peptide phosphorylation, FRET/HTRF). Particulars: 140 μM ATP, 25° C. 1 hr. In kind it is biochemical. The protocol: FGFR3 Enzymatic Assay The inhibitor potency of compounds of the invention was measured in an enzyme assay that measures peptide phosphorylation using FRET measurements to detect product formation. Inhibitors were serially diluted in DMSO and a volume of 0.5 μL was transferred to the wells of a 384-well plate. A 10 μL volume of FGFR3 enzyme (Millipore) diluted in assay buffer (50 mM HEPES, 10 mM MgCl2, 1 mM EGTA, 0.01% Tween-20, 5 mM DTT, pH 7.5) was added to the plate and pre-incubated for 5-10 minutes. Appropriate controls (enzyme blank and enzyme with no inhibitor) were included on the plate. […] The plate was incubated at 25° C. for 1 hr. […] The plate was allowed to equilibrate for ˜1 hr before scanning the wells on a PheraStar plate reader.
Sequence of FGFR3 enzyme (Millipore) (P22607 23-806): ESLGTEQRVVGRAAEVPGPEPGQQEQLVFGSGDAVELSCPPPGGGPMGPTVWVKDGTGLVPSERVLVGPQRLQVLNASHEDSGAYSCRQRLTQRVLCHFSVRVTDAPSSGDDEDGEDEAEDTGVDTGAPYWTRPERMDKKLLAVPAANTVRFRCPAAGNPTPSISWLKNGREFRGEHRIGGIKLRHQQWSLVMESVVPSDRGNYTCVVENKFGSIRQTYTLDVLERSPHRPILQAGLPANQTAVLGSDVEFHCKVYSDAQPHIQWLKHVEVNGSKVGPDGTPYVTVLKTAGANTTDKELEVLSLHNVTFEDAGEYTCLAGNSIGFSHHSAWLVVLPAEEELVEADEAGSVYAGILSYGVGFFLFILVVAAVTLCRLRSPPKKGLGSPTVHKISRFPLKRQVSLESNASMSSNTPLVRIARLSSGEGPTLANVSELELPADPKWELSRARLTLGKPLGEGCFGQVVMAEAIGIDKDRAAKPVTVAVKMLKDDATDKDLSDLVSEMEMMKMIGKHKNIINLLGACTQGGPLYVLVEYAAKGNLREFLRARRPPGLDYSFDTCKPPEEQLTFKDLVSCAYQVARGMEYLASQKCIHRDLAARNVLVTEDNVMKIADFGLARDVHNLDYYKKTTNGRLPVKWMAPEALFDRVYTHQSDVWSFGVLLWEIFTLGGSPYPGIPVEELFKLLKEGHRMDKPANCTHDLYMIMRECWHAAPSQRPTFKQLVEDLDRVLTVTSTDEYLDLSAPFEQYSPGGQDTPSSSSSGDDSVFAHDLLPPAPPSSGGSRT
GraphPad prism3 was used to analyze the data. The IC50 values were derived by fitting the data to the equation for a sigmoidal dose-response with a variable slope. Y=Bottom+(Top-Bottom)/(1+10^(Log IC50−X)*HillSlope)) where X is the logarithm of concentration and Y is the response.

In general, IC50 refers to the midpoint of a concentration-inhibition curve. Low readings indicate inhibition by little substance, high ones a need for much substance.

Take `CC(O)CNC(=O)C(C)n1cc(-c2cnn3c(-c4cccc(NC(=O)NCC(F)(F)F)c4)cnc3c2)cn1` (stereo not shown) [Example 63, N-(2-Hydroxypropyl)-2-(4-{3-[3-({[(2,2,2-trifluoroethyl)amino]carbonyl}amino)phenyl]imidazo[1,2-b]pyridazin-7-yl}-1H-pyrazol-1-yl)propanamide]: the IC50 is less than 0.01 µM.

On to `CC(C(=O)N1CC(O)C1)n1cc(-c2cnn3c(-c4cccc(NC(=O)NCC(F)(F)F)c4)cnc3c2)cn1` (stereo not shown) [Example 64, N-[3-(7-{1-[2-(3-Hydroxyazetidin-1-yl)-1-methyl-2-oxoethyl]-1H-pyrazol-4-yl}imidazo[1,2-b]pyridazin-3-yl)phenyl]-N′-(2,2,2-trifluoroethyl)urea], for which the IC50 is less than 0.01 µM.

In the case of `CC(C(=O)N1CCC(F)(F)C1)n1cc(-c2cnn3c(-c4cccc(NC(=O)NCC(F)(F)F)c4)cnc3c2)cn1` (stereo not shown) [Example 65, N-[3-(7-{1-[2-(3,3-Difluoropyrrolidin-1-yl)-1-methyl-2-oxoethyl]-1H-pyrazol-4-yl}imidazo[1,2-b]pyridazin-3-yl)phenyl]-N′-(2,2,2-trifluoroethyl)urea], the IC50 is less than 0.01 µM.

Consider `N#CCC(=O)N1CC(CC#N)(n2cc(-c3cnn4c(-c5cccc(NC(=O)NCC(F)(F)F)c5)cnc4c3)cn2)C1` [Example 77, N-[3-(7-{1-[1-(Cyanoacetyl)-3-(cyanomethyl)azetidin-3-yl]-1H-pyrazol-4-yl}imidazo[1,2-b]pyridazin-3-yl)phenyl]-N′-(2,2,2-trifluoroethyl)urea], for which the half-maximal inhibitory concentration (IC50) was less than 0.01 µM.

On to `N#CCC1(n2cc(-c3cnn4c(-c5cccc(NC(=O)NCC(F)(F)F)c5)cnc4c3)cn2)CN(C(=O)CC2CC2)C1` [Example 78, N-[3-(7-{1-[3-(Cyanomethyl)-1-(cyclopropylacetyl)azetidin-3-yl]-1H-pyrazol-4-yl}imidazo[1,2-b]pyridazin-3-yl)phenyl]-N′-(2,2,2-trifluoroethyl)urea], for which the IC50 is less than 0.01 µM.

Compound `CC1(C(=O)N2CC(CC#N)(n3cc(-c4cnn5c(-c6cccc(NC(=O)NCC(F)(F)F)c6)cnc5c4)cn3)C2)CC1` [Example 79, N-{3-[7-(1-{3-(Cyanomethyl)-1-[(1-methylcyclopropyl)carbonyl]azetidin-3-yl}-1H-pyrazol-4-yl)imidazo[1,2-b]pyridazin-3-yl]phenyl}-N′-(2,2,2-trifluoroethyl)urea] showed an IC50 of less than 0.01 µM.

The compound `N#CCC1(n2cc(-c3cnn4c(-c5cccc(NC(=O)NCC(F)(F)F)c5)cnc4c3)cn2)CN(C(=O)C2(C#N)CC2)C1` [Example 80, N-[3-(7-{1-[1-[(1-Cyanocyclopropyl)carbonyl]-3-(cyanomethyl)azetidin-3-yl]-1H-pyrazol-4-yl}imidazo[1,2-b]pyridazin-3-yl)phenyl]-N′-(2,2,2-trifluoroethyl)urea] came in with an IC50 of less than 0.01 µM.

As for `N#CCC1(n2cc(-c3cnn4c(-c5cccc(NC(=O)NCC(F)(F)F)c5)cnc4c3)cn2)CN(C(=O)CC2CCCO2)C1` (stereo not shown) [Example 81, N-[3-(7-{1-[3-(Cyanomethyl)-1-(tetrahydrofuran-2-ylacetyl)azetidin-3-yl]-1H-pyrazol-4-yl}imidazo[1,2-b]pyridazin-3-yl)phenyl]-N′-(2,2,2-trifluoroethyl)urea], the IC50 was less than 0.01 µM.

Regarding `N#CCC1(n2cc(-c3cnn4c(-c5cccc(NC(=O)NCC(F)(F)F)c5)cnc4c3)cn2)CN(C(=O)C2CCOC2)C1` (stereo not shown) [Example 82, N-[3-(7-{1-[3-(Cyanomethyl)-1-(tetrahydrofuran-3-ylcarbonyl)azetidin-3-yl]-1H-pyrazol-4-yl}imidazo[1,2-b]pyridazin-3-yl)phenyl]-N′-(2,2,2-trifluoroethyl)urea], the IC50 is less than 0.01 µM.

For `N#CCC1(n2cc(-c3cnn4c(-c5cccc(NC(=O)NCC(F)(F)F)c5)cnc4c3)cn2)CN(C(=O)N2CCOCC2)C1` [Example 85, N-[3-(7-{1-[3-(Cyanomethyl)-1-(morpholin-4-ylcarbonyl)azetidin-3-yl]-1H-pyrazol-4-yl}imidazo[1,2-b]pyridazin-3-yl)phenyl]-N′-(2,2,2-trifluoroethyl)urea], the IC50 is less than 0.01 µM.

For the compound `N#CCC1(n2cc(-c3cnn4c(-c5cccc(NC(=O)NCC(F)(F)F)c5)cnc4c3)cn2)CN(C(=O)N2CCCC2)C1` [Example 86, N-[3-(7-{1-[3-(Cyanomethyl)-1-(pyrrolidin-1-ylcarbonyl)azetidin-3-yl]-1H-pyrazol-4-yl}imidazo[1,2-b]pyridazin-3-yl)phenyl]-N′-(2,2,2-trifluoroethyl)u rea], the IC50 is less than 0.01 µM.

For the compound `N#CCC1(n2cc(-c3cnn4c(-c5cccc(NC(=O)NCC(F)(F)F)c5)cnc4c3)cn2)CN(C(=O)NCC2CC2)C1` [Example 87, 3-(Cyanomethyl)-N-(cyclopropylmethyl)-3-(4-{3-[3-({[(2,2,2-trifluoroethyl)amino]carbonyl}amino)phenyl]imidazo[1,2-b]pyridazin-7-yl}-1H-pyrazol-1-yl)azetidine-1-carboxamide], the IC50 is less than 0.01 µM.

In the case of `N#CCC1(n2cc(-c3cnn4c(-c5cccc(NC(=O)NCC(F)(F)F)c5)cnc4c3)cn2)CN(C(=O)OCC2CC2)C1` [Example 88, Cyclopropylmethyl 3-(cyanomethyl)-3-(4-{3-[3-({[(2,2,2-trifluoroethyl)amino]carbonyl}amino)phenyl]imidazo[1,2-b]pyridazin-7-yl}-1H-pyrazol-1-yl)azetidine-1-carboxylate], the IC50 was less than 0.01 µM.
